Reference: PubChem BioAssay AID310 (DTP/NCI, 2004)
Where “and” joins values, the source holds several entries; their conditions need not be identical. Equal values may be shown once. Results filed as inconclusive are left out.

Test system: C3AKF1 mice, osteogenic sarcoma HE10734 s.c., tumor weight T/C
Assay: NCI In Vivo Anticancer Drug Screen. Data for tumor model Osteogenic Sarcoma HE 10734 (subcutaneous) in C3AKF1 (CHKRF1) mice
Conditions: endpoint: mean tumor weight, schedule: Q01DX010 (ip), higher = larger tumour
Procedure: The antitumor activity of compounds was measured in mice bearing transplantable tumors. Survival or tumor size were measured and the results are expressed as the measurement made in the treated group (T) divided by the measurement made in the vehicle treated control group (C). The tumor model used in this assay is Osteogenic Sarcoma HE 10734 (subcutaneous) in C3AKF1 (CHKRF1) mice

[1] = dose: 25.0 mg/kg/injection, vehicle: saline
[2] = dose: 50.0 mg/kg/injection, vehicle: saline
[3] = dose: 25.0 mg/kg/injection, vehicle: carboxymethylcellulose (CMC)
[4] = dose: 100.0 mg/kg/injection, vehicle: saline
[5] = dose: 200.0 mg/kg/injection, vehicle: saline

Which results are given for `CCN(CC)Cc1cc(Nc2c3ccccc3nc3cc(Cl)ccc23)ccc1O`?
T/C (dose: 12.5 mg/kg/injection, vehicle: saline): 78 % of control; T/C [1]: 111 % of control; T/C [2]: 70 % of control

With `CN(N=O)C(N)=O` as the molecule, how does the T/C (dose: 10.0 mg/kg/injection, vehicle: carboxymethylcellulose (CMC)) read?
Its T/C is 47 % of control and 55 % of control.

And the T/C (dose: 16.0 mg/kg/injection, vehicle: carboxymethylcellulose (CMC))?
Its T/C is 34 % of control and 39 % of control.

What about the T/C [3] of the same molecule?
Its T/C is 38 % of control.

What does the source list for `ClCCn1cnc2c(SCc3ccccc3)ncnc21`?
T/C [1]: 75 % of control; T/C [2]: 64 % of control; T/C [4]: 56 % of control; T/C (dose: 300.0 mg/kg/injection, vehicle: saline): 69 % of control; T/C (dose: 450.0 mg/kg/injection, vehicle: saline): 65 % of control

Which results are given for `Cc1ccc(N=NN(C)C)cc1`?
T/C [1]: 83 % of control; T/C [2]: 46 % of control; T/C [4]: 46 % of control

Which T/C (dose: 62.5 mg/kg/injection, vehicle: carboxymethylcellulose (CMC)) does the source give for `Nc1ccc2ccccc2c1N=Nc1ccccc1` here?
The T/C was 101 % of control.

And the T/C (dose: 125.0 mg/kg/injection, vehicle: carboxymethylcellulose (CMC))?
Its T/C is 100 % of control.

What about the T/C (dose: 250.0 mg/kg/injection, vehicle: carboxymethylcellulose (CMC)) of the same molecule?
Its T/C is 65 % of control.

And the T/C (dose: 500.0 mg/kg/injection, vehicle: carboxymethylcellulose (CMC))?
Its T/C is 41 % of control.

How did the T/C (dose: 6.0 mg/kg/injection, vehicle: carboxymethylcellulose (CMC)) turn out when `Nc1nc(SCc2ccccc2Cl)c2[nH]cnc2n1` was run?
The T/C was 70 % of control.

And the T/C (dose: 12.0 mg/kg/injection, vehicle: carboxymethylcellulose (CMC))?
The T/C was 52 % of control.

What about the T/C [3] of the same molecule?
The T/C was 54 % of control.

And the T/C (dose: 50.0 mg/kg/injection, vehicle: carboxymethylcellulose (CMC))?
Its T/C is 43 % of control.

What about the T/C [2] of the same molecule?
The T/C was 32 % of control and 39 % of control.

And the T/C (dose: 70.0 mg/kg/injection, vehicle: saline)?
The T/C was 41 % of control.

And the T/C (dose: 110.0 mg/kg/injection, vehicle: saline)?
The T/C was 16 % of control and 33 % of control.

What about the T/C (dose: 165.0 mg/kg/injection, vehicle: saline) of the same molecule?
The T/C was 13 % of control.

For `CC(=O)Nc1ccc(NC(=O)c2ccc([As](O)O)cc2)cc1`, which T/C (dose: 15.0 mg/kg/injection, vehicle: carboxymethylcellulose (CMC)) is on record?
Its T/C is 89 % of control.

And the T/C (dose: 30.0 mg/kg/injection, vehicle: carboxymethylcellulose (CMC))?
Its T/C is 111 % of control.

What about the T/C (dose: 60.0 mg/kg/injection, vehicle: carboxymethylcellulose (CMC)) of the same molecule?
Its T/C is 85 % of control.

What about the T/C (dose: 120.0 mg/kg/injection, vehicle: carboxymethylcellulose (CMC)) of the same molecule?
Its T/C is 61 % of control and 62 % of control.

What about the T/C (dose: 240.0 mg/kg/injection, vehicle: carboxymethylcellulose (CMC)) of the same molecule?
The T/C was 32 % of control.

What does the source list for `O=P(N1CC1)(N1CC1)N1CC1`?
T/C (dose: 0.5 mg/kg/injection, vehicle: carboxymethylcellulose (CMC)): 104 % of control; T/C (dose: 1.0 mg/kg/injection, vehicle: carboxymethylcellulose (CMC)): 76 % of control; T/C (dose: 2.0 mg/kg/injection, vehicle: carboxymethylcellulose (CMC)): 67 % of control; T/C (dose: 4.0 mg/kg/injection, vehicle: carboxymethylcellulose (CMC)): 41 % of control

What does the source list for `ClCCn1cnc2c(SCc3ccccc3Cl)ncnc21`?
T/C [2]: 72 % of control; T/C [4]: 56 % of control; T/C [5]: 35 % of control

With `CC(C)Sc1nc(N)nc2nc[nH]c12` as the molecule, how does the T/C [1] read?
Its T/C is 71 % of control.

And the T/C [2]?
Its T/C is 83 % of control.

What about the T/C [4] of the same molecule?
Its T/C is 76 % of control.

What about the T/C [5] of the same molecule?
Its T/C is 23 % of control.
